# Test results from publication PMC7806726, “Activated neutrophil fluorescent imaging technique for human lungs” (Scientific Reports, 2021).
# Numbered stars: 1 amine (or outer) side, 2 acyl side, 3 side chain; on linkers, the order of the positions; unused ones are H or OH. Bridge positions count the residues as written; N and C are the ends. Square brackets hold non-standard residues; d marks the D form. Peptide text beside a SMILES is read from it. I, II: the chains in the order shown. * marks the point of attachment. 5FAM = O=C1OC2(c3ccc(O)cc3Oc3cc(O)ccc32)c2ccc(C(=O)*)cc21; X1 = NC(=O)NC(COCCCN[*:1])(COCCCN[*:2])COCCCN[*:3]; Nle = CCCC[C@H](N)C(=O)O; AEEA = NCCOCCOCC(=O)O
# Columns and labels:
# [1] = Change in fluorescence with pH (plate reader); assay type: physicochemical; conditions: carboxyfluorescein 15 µM, freshly made pH buffer; n = 1, in triplicate
# erythrocytes = assay: Erythrocyte haemolysis (membrane toxicity); assay type: cell-based, human; conditions: NAP 5 µM or working concentration × 2, 1 h 37 °C, absorbance 350 nm, vs Triton X-100 0.4%
# Description: (§1) Membrane toxicity of NAP was assessed using erythrocyte haemolysis. Isolated erythrocytes remaining after leukocyte separation were diluted 1:5 with PBS without cations and 50 µL of this red cell suspension was added to wells of a 96-well plate. Working concentration of NAP (5 µM), or working concentration × 2, was added to the relevant well. Positive control wells contained Triton X-100 (0.4%, Sigma-Aldrich) and negative control wells contained PBS w/o only. The 96-well plate was incubated for one hour at 37 °C in a humidified environment. Following incubation, 180 µL of PBS without cations was added to each well and the plate was centrifuged at 2500 rpm for 10 min. 100 µL of supernatant from each well was removed and aliquoted into clean wells. Absorbance at 350 nm was recorded using a plate reader. Triplicate repeats were pooled to yield an overall mean point estimate ± SEM of haemolysis that was expressed as a percentage of the positive control. For neutrophil toxicity freshly isolated human peripheral neutrophils were resuspended at 10 × 10^6 cells/mL in IMDM with 10% autologous serum and cultured for 18hrs ± 5 µM NAP at 37 degrees in a 5% CO2 incubator. […] Duplicate repeats were pooled to yield an overall mean point estimate ± SEM of apoptosis and necrosis that was expressed as a percentage of total cells.
# rats = assay: GLP toxicology study, delivery via the trachea; assay type: in vivo, rat
# Description: NAP was delivered via the trachea to rats in a Contract Research Organization Good Laboratory Practice (GLP) toxicology study at approximately 700 times the human dose. NAP (100 µg) was instilled and rats underwent necroscopy at 3 and 15 days after delivery. […] The release specifications for NAP drug substance and drug product are shown in Supplementary tables S3 and S4.
# All experiments using human volunteers were performed following approval from the appropriate regional ethics committee (REC) and informed consent was obtained from each participant or their personal legal representative for adults with incapacity (in accordance with the Adults with Incapacity (Scotland) Act 2000). BALF for alveolar macrophages: (East of Scotland Research Ethics Committee 1 no: 07/S1102/20), blood for assessment of leucocyte populations (Lothian Research Ethics Committee no: 08/S1103/38), and first-in-human assessment of probe performance and safety (Scotland A Research Ethics Committee no: 12/SS/0004, EudraCT 2011-006169-17, NCT01532024). All methods were performed in accordance with the relevant guidelines and regulations. Animal toxicology was conducted in compliance with UK Good Laboratory Practice Regulations by a third party contract research organization (Covance Laboratories Ltd, Harrogate, UK) under Covance UK Home Office License for toxicology. […]
# [2] = biological target: T1, human neutrophil elastase (HNE) (Homo sapiens, UniProt P08246); assay: Plate reader assessment of probe de-quenching with purified HNE; assay type: biochemical
# T1 construct: purchased Elastin Products Company, MO, USA
# T1 sequence (P08246 30-267): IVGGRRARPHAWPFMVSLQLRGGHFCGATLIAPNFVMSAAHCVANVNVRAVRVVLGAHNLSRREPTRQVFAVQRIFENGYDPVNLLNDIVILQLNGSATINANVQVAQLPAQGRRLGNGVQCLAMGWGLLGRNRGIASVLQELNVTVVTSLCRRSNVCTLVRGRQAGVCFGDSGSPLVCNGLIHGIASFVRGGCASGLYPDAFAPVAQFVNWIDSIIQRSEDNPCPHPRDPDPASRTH
# Description: To generate an emission spectrum, NAP was excited at 430 nm to ensure the spectrum could be visualized to the x-axis. Excitation/absorbance spectra were obtained with NAP diluted to 5 µM in PBS or freshly prepared pH buffer. Purified HNE (Elastin Products Company, MO, USA) and purified proteinase 3 (Sigma-Aldrich, Poole, UK) were made up according to the manufacturer’s instructions to yield appropriate stock concentrations. Stock preparations of purified enzyme were prepared according to manufacturers’ instructions and subsequently diluted appropriately with Phosphate Buffered Saline (PBS, Thermoscientific, MA, USA) and NAP to achieve a final volume of 200 µL per condition and a final NAP concentration of 5 µM. Solutions were prepared directly into 96 well plates (Corning, NY, USA) on ice, with or without the human neutrophil elastase inhibitor Sivelestat (ONO-5046, 100 µM, Tocris, Bristol, UK). Plates were subsequently incubated at 37 °C with fluorescent parameters recorded every minute for 1 h (Fig. 1C, excitation 488 nm, emission 525 nm). All fluorescence parameters were recorded using a microplate reader (Synergy H1 hybrid reader, BioTek, Potton, UK,).
# [3] = GLP AMES mutagenicity test, microsuspension-modified method
# [4] = test system: freshly isolated human peripheral neutrophils; assay: Neutrophil toxicity (Annexin V / propidium iodide flow cytometry); assay type: cell-based; conditions: 5 µM NAP, 18 h, 37 °C, IMDM with 10% autologous serum, Annexin V/PI
# Description: as §1
# [5] = test system: isolated healthy human neutrophils; assay: Confocal time course of primed neutrophils activated with fMLF; assay type: cell-based; conditions: co-incubation with Sivelestat 100 µM; Cytochalasin B primed, fMLF 500 nM, NAP 5 µM
# Description: Where stated commercial stains were used in accordance with the manufacturer’s instructions or applied to a suspension of the relevant cells in eppendorfs at a concentration of 1:1000 from delivered stock for 10 min at 37 °C and 500 rpm using an orbital plate shaker before undergoing one wash in PBS without divalent cations as described above. 8 well Lab-Tek II confocal chambers (VWR, PA, USA) were coated in fibronectin (1 µg/ml, Sigma-Aldrich) for 10 min at 37 °C. Wells were then washed twice before the addition of the appropriate cell suspension. Cells were typically seeded at a concentration of 0.5—1 × 10^6/mL. […]
# A laser scanning confocal imaging system (LSM510; Carl Zeiss, Jena, Germany), incorporating an upright Axioskop FS2 microscope (× 63 objective) was used for image acquisition. […] Fluorescein based dyes were excited with a dedicated 488 nm laser line, with emitted light detected at 500–530 nm. Syto 82 nuclear, calcein cytoplasmic dyes and CellMask Orange plasma membrane stain (all Invitrogen, Thermoscientific) were excited with a dedicated 543 nm line, with emitted light detected at 560–600 nm. Syto 60 (Invitrogen, Thermoscientific) stain was excited with a dedicated 633 nm line, with emitted light detected at 650–680 nm. PKH labelled bacteria were excited with a dedicated 633 nm line with emitted light detected at 650–705 nm. […]
# [6] = test system: freshly isolated neutrophils; assay: Flow cytometry of intracellular NAP fluorescence in isolated neutrophils; assay type: cell-based, human; conditions: A23187 10 µM activated neutrophils, NAP 5 µM; Dynasore Hydrate 30 µM, DPI 10 µM, Sivelestat 100 µM; 30 min 37 °C
# Description: Neutrophils were suspended in PBS with divalent cations at a concentration of 10 × 10^6/mL. […] Incubation took place at 37 °C for 30 min and samples were shaken at 500 rpm using an orbital plate shaker (Thermomixer comfort, Eppendorf, Hamburg, Germany). Suspensions were then incubated with anti-human CD11b-APC (1:100 dilution, Clone ICRF44, Biolegend, CA, USA) at 22 °C for 30 min at 500 rpm before the application of NAP to a final concentration of 5 µM for 15 min at 22 °C and 500 rpm. Cells were washed in PBS without divalent cations at 350 g for 5 min at room temperature using a microtube centrifuge (Biofuge fresco, Heraeus, Hanau, Germany) and reconstituted in 175 µL PBS without divalent cations. Samples were loaded onto a 96 round-bottomed well plate (Corning).
# Flow cytometry was performed using an Accuri C6 flow cytometer and BD CSampler software (both Becton–Dickinson, NJ, USA). Compensation beads and single stain controls were used where appropriate. […] The cytometer was thresholded on forward scatter to eliminate debris. The cytometer was aligned monthly using Calibrite 3, APC and 8 peak beads (Becton–Dickinson) to calibrate scatter and fluorescence parameters.
# Data analyses were performed using Flowjo v10.0.8r1 (Treestar, Ashland, OR, USA). Samples were repeated in duplicate for each individual donor and pooled to yield a point estimate for each condition and each donor. The point estimates from different donors were pooled to yield an overall mean point estimate for each condition ± SE.
molecule,measurement,setting,value
carboxyfluorescein,change in fluorescence with pH,[1],expected increase in fluorescence as H^+ concentration falls
CCCC[C@H](NC(=O)[C@@H](NC(=O)[C@H](CCC(=O)O)NC(=O)[C@H](CCC(=O)O)NC(=O)COCCOCCNC(=O)c1ccc2c(c1)C(=O)OC21c2ccc(O)cc2Oc2cc(O)ccc21)[C@@H](C)CC)C(=O)N[C@@H](CCCNC(=N)N)C(=O)N[C@@H](CCCNC(=N)N)C(=O)NCCCOCC(COCCCNC(=O)[C@H](CCCNC(=N)N)NC(=O)[C@H](CCCNC(=N)N)NC(=O)[C@H](CCCC)NC(=O)[C@@H](NC(=O)[C@H](CCC(=O)O)NC(=O)[C@H](CCC(=O)O)NC(=O)COCCOCCNC(=O)c1ccc2c(c1)C(=O)OC21c2ccc(O)cc2Oc2cc(O)ccc21)[C@@H](C)CC)(COCCCNC(=O)[C@H](CCCNC(=N)N)NC(=O)[C@H](CCCNC(=N)N)NC(=O)[C@H](CCCC)NC(=O)[C@@H](NC(=O)[C@H](CCC(=O)O)NC(=O)[C@H](CCC(=O)O)NC(=O)COCCOCCNC(=O)c1ccc2c(c1)C(=O)OC21c2ccc(O)cc2Oc2cc(O)ccc21)[C@@H](C)CC)NC(N)=O (stereo partly drawn) [NAP] (I: {5FAM-AEEA}-EEI[Nle]RR / II: {5FAM-AEEA}-EEI[Nle]RR / III: {5FAM-AEEA}-EEI[Nle]RR; linker I:C-II:C-III:C via X1),red cell haemolysis,erythrocytes,did not cause
same,local or distant organ toxicity,"rats; NAP 100 µg instilled via the trachea (approximately 700 times the human dose), necroscopy at 3 and 15 days",No local or distant organ toxicity was observed
same,haematological or other metabolic consequences,"rats; NAP 100 µg instilled via the trachea, 3 and 15 days",no haematological or other metabolic consequences
same,increase in fluorescence compared to the resting state,"[2]; NAP 5 µM in PBS with purified HNE, 37 °C, read every minute for 1 h, ex 488 nm / em 525 nm, three independent experiments",~350%
same,mutagenicity,[3],no mutagenicity
same,neutrophil necrosis,[4],did not cause
CC(C)(C)C(=O)Oc1ccc(S(=O)(=O)Nc2ccccc2C(=O)NCC(=O)O)cc1 [Sivelestat],effect of inhibitor on cleavage of NAP by HNE,"[2]; Sivelestat 100 µM, NAP 5 µM, 100 nM HNE",completely abrogated
same,effect of inhibitor on intracellular NAP fluorescent signal (confocal),[5],abrogated
same,effect of inhibitor on intracellular NAP fluorescent signal (flow cytometry),[6],abrogated
"c1ccc2c(c1)[I+]c1ccccc1-2 [DPI, Diphenyleneiodonium]",effect of inhibitor on intracellular NAP fluorescent signal (flow cytometry),[6],reduced the overall mean fluorescent intensity
"O.O=C(N/N=C/c1ccc(O)c(O)c1)c1cc2ccccc2cc1O [Dynasore Hydate, Dynasore Hydrate]",effect of inhibitor on intracellular NAP fluorescent signal (flow cytometry),[6],abrogated
